Literature values, collected in patent US20140141090A1, “Pharmaceutical Composition Comprising Opioid Agonist And Sequestered Antagonist” (priority 2011, published 2014).
Structures can show the parent of a compound that is named as a salt. Where two headings read alike, the source gives them in different places.

Assays:
[1] = after oral administration
[2] = not given; remark: listed apart in the source
[3] = not given; remark: listed apart in the source
[4] = in comparison to a 15 mg dose of hydrocodone

Structure (SMILES): COc1ccc2c3c1O[C@H]1[C@@H](O)C=C[C@H]4[C@@H](C2)N(C)CC[C@@]341 [codeine]
- Equianalgesic dose [4]: 90.0 mg

Structure (SMILES): C[C@H]1[C@H]2Cc3ccc(O)cc3[C@]1(C)CCN2CC1CC1 [cyclazocine]
- Duration of action [1]: ~24 h

Structure (SMILES): O=C1CC[C@@]2(O)[C@H]3Cc4ccc(O)c5c4[C@@]2(CCN3CC2CC2)[C@H]1O5 [hydrochloride salt of naltrexone, naltrexone hydrochloride]
- Solubility in water [2]: up to 100 mg/cc

Structure (SMILES): COc1ccc2c3c1O[C@H]1C(=O)CC[C@H]4[C@@H](C2)N(C)CC[C@]314 [hydrocodone]
- Equianalgesic dose [4]: 15.0 mg

Structure (SMILES): CN1CC[C@]23CCCC[C@H]2[C@H]1Cc1ccc(O)cc13 [levorphanol]
- Equianalgesic dose [4]: 1.8 mg

Structure (SMILES): CCOC(=O)C1(c2ccccc2)CCN(C)CC1 [meperidine]
- Equianalgesic dose (in vivo): 135.0 mg

Structure (SMILES): CCC(=O)C(CC(C)N(C)C)(c1ccccc1)c1ccccc1 (stereo not drawn) [methadone]
- Equianalgesic dose [4]: 9.0 mg

Structure (SMILES): CN1CC[C@]23c4c5ccc(O)c4O[C@H]2[C@@H](O)C=C[C@H]3[C@H]1C5 [morphine]
- Equianalgesic dose (in vivo): 27.0 mg

Structure (SMILES): O=C1CC[C@@]2(O)[C@H]3Cc4ccc(O)c5c4[C@@]2(CCN3CC2CC2)[C@H]1O5 [naltrexone]
- Duration of action [1]: ~24 h
- Oral bioavailability [3]: 5-40%
- Time of absorption following oral administration [3]: ≤ 1 h

Structure (SMILES): COc1ccc2c3c1OC1C(=O)CC[C@@]4(O)[C@@H](C2)N(C)CC[C@]314 (stereo partly drawn) [oxycodone, 4,5-epoxy-14-hydroxy-3-methoxy-17-methylmorphinan-6-one]
- Equianalgesic dose [4]: 13.5 mg
